Source: PMC9500858 (International Journal of Molecular Sciences, 2022)
Entries after “also recorded” stand apart in the source; their conditions may differ.

Legend:
HCl (1 M) = settings: 80 °C for 12 h and 37°C for 24 h, up to 96 h
[1] = 30% (v/v) hydrogen peroxide (H2O2); settings: 37 °C for 24 h and 80 °C for 12 h, up to 24 h
[2] = 1 M HCl (acid hydrolysis); settings: 37 °C (24 h) and 80 °C (12 h), up to 96 h (time course, Figure 2C); 24 h at 37 °C; 12 h at 80 °C
[3] = 1 M NaOH (base hydrolysis); settings: 37 °C (24 h) and 80 °C (12 h), up to 96 h (time course, Figure 2D); 24 h at 37 °C; 12 h at 80 °C

| Substance | cleaved bond (HCl (1 M)) | cleaved bond [1] | fragment found [2] | fragment found [3] |
| --- | --- | --- | --- | --- |
| HELM PEPTIDE1{[Cc1cc(O)cc(C)c1C[C@H](N)C(=O)[*:2]].[dK].F.F.K.K.P.F.I.L}$$$$V2.0 (N-terminus assumed; SMILES CC[C@H](C)[C@H](NC(=O)[C@H](Cc1ccccc1)NC(=O)[C@@H]1CCCN1C(=O)[C@H](CCCCN)NC(=O)[C@H](CCCCN)NC(=O)[C@H](Cc1ccccc1)NC(=O)[C@H](Cc1ccccc1)NC(=O)[C@@H](CCCCN)NC(=O)[C@@H](N)Cc1c(C)cc(O)cc1C)C(=O)N[C@@H](CC(C)C)C(=O)O) | Phe-Ile9; also recorded: D-Lys2-Phe | Dmt1-D-Lys2 |  |  |
| HELM PEPTIDE1{[Cc1cc(O)cc(C)c1C[C@H](N)C(=O)[*:2]].[dK].F.F.K.K.P.F.[CC(C)(C)[C@H](N[*:1])C(=O)[*:2]].L}$$$$V2.0 (N-terminus assumed; SMILES Cc1cc(O)cc(C)c1C[C@H](N)C(=O)N[C@H](CCCCN)C(=O)N[C@@H](Cc1ccccc1)C(=O)N[C@@H](Cc1ccccc1)C(=O)N[C@@H](CCCCN)C(=O)N[C@@H](CCCCN)C(=O)N1CCC[C@H]1C(=O)N[C@@H](Cc1ccccc1)C(=O)N[C@H](C(=O)N[C@@H](CC(C)C)C(=O)O)C(C)(C)C) |  |  | compound H—Phe-Lys-Lys-Pro-Phe-Tle-Leu; also recorded: compound K—Pro-Phe-Tle | compound H—Phe-Lys-Lys-Pro-Phe-Tle-Leu; also recorded: compound K—Pro-Phe-Tle; also recorded: compound J (Pro-Phe-Tle-Leu) |
